Like-named read-outs stand apart in the source and are kept apart here.
Experiments:
BT-549 [1] = test: NCI five-dose assay; format: cell-based, human; conditions: BT-549, Breast cancer; for CC50 / GI50: Homo sapiens; for CC50: 48 h, read-out: LC50 (the source's name); for GI50: read-out: GI50 Conc. per Cell Lines
NCI 60 cell lines = test: NCI one-dose assay, full panel; format: cell-based, human; conditions: Homo sapiens, 60 cell, read-out: cell growth inhibition percentage, range
NCI-H23 = test: NCI five-dose assay; format: cell-based, human; conditions: NCI-H23, Non-small cell lung cancer; for CC50 / GI50: Homo sapiens; for CC50: 48 h, read-out: LC50 (the source's name); for GI50: read-out: GI50 Conc. per Cell Lines
A498 = test: NCI one-dose assay; format: cell-based, human; conditions: Homo sapiens, A498, A498, Renal cancer, read-out: Cell growth inhibition %
NCI-H522 = test: NCI five-dose assay; format: cell-based, human; conditions: NCI-H522, Non-small cell lung cancer; for CC50 / GI50: Homo sapiens; for CC50: 48 h, read-out: LC50 (the source's name); for GI50: read-out: GI50 Conc. per Cell Lines
MOLT-4 = test: NCI one-dose assay; format: cell-based; conditions: Homo sapiens, MOLT-4, Leukemia, read-out: Cell growth inhibition %
EKVX = test: NCI one-dose assay; format: cell-based; conditions: Homo sapiens, Non-small cell lung cancer, read-out: Cell growth inhibition %
SK-MEL-5 = test: NCI one-dose assay; format: cell-based; conditions: Homo sapiens, SK-MEL-5, Melanoma, read-out: Cell growth inhibition %
OVCAR-8 = test: NCI one-dose assay; format: cell-based; conditions: Homo sapiens, OVCAR-8, Ovarian cancer, read-out: Cell growth inhibition %
SF-539 = test: NCI one-dose assay; format: cell-based; conditions: Homo sapiens, SF-539, CNS cancer, read-out: Cell growth inhibition %
HCT-15 = test: NCI one-dose assay; format: cell-based; conditions: Homo sapiens, HCT-15, Colon cancer, read-out: Cell growth inhibition %
SK-OV-3 = test: NCI one-dose assay; format: cell-based; conditions: Homo sapiens, SK-OV-3, Ovarian cancer, read-out: Cell growth inhibition %
BT-549 [2] = test: NCI one-dose assay; format: cell-based; conditions: Homo sapiens, BT-549, Breast cancer, read-out: Cell growth inhibition %
LOX IMVI = test: NCI one-dose assay; format: cell-based; conditions: Homo sapiens, Melanoma, read-out: Cell growth inhibition %
MDA-MB-231/ATCC = test: NCI one-dose assay; format: cell-based; conditions: Homo sapiens, Breast cancer, read-out: Cell growth inhibition %
NCI/ADR-RES = test: NCI one-dose assay; format: cell-based; conditions: Homo sapiens, Ovarian cancer, read-out: Cell growth inhibition %
SF-295 = test: NCI one-dose assay; format: cell-based; conditions: Homo sapiens, SF-295, CNS cancer, read-out: Cell growth inhibition %
SF-268 = test: NCI one-dose assay; format: cell-based; conditions: Homo sapiens, SF-268, CNS cancer, read-out: Cell growth inhibition %
SR = test: NCI one-dose assay; format: cell-based; conditions: Homo sapiens, Leukemia, read-out: Cell growth inhibition %
IGROV1 = test: NCI one-dose assay; format: cell-based; conditions: Homo sapiens, IGROV-1, IGROV1, Ovarian cancer, read-out: Cell growth inhibition %
A549/ATCC = test: NCI one-dose assay; format: cell-based; conditions: Homo sapiens, Non-small cell lung cancer, read-out: Cell growth inhibition %
MDA-MB-468 = test: NCI one-dose assay; format: cell-based; conditions: Homo sapiens, MDA-MB-468, Breast cancer, read-out: Cell growth inhibition %
NCI-H460 = test: NCI one-dose assay; format: cell-based; conditions: Homo sapiens, NCI-H460, Non-small cell lung cancer, read-out: Cell growth inhibition %
MDA-MB-435 = test: NCI one-dose assay; format: cell-based; conditions: Homo sapiens, MDA-MB-435, Melanoma, read-out: Cell growth inhibition %
UACC-62 = test: NCI one-dose assay; format: cell-based; conditions: Homo sapiens, UACC-62, Melanoma, read-out: Cell growth inhibition %
HS 578 T = test: NCI one-dose assay; format: cell-based; conditions: Homo sapiens, Breast cancer, read-out: Cell growth inhibition %
HT29 = test: NCI one-dose assay; format: cell-based; conditions: Homo sapiens, HT-29, HT29, Colon cancer, read-out: Cell growth inhibition %
M14 = test: NCI one-dose assay; format: cell-based; conditions: Homo sapiens, M14, Melanoma, read-out: Cell growth inhibition %
MDA/MB-231-ATCC = test: NCI five-dose assay; format: cell-based, human; conditions: Breast cancer; for LC50 / GI50: Homo sapiens; for LC50: 48 h; for GI50: read-out: GI50 Conc. per Cell Lines
PC-3 = test: NCI five-dose assay; format: cell-based, human; conditions: PC-3, Prostate cancer; for GI50: read-out: GI50 Conc. per Cell Lines
786-0 = test: NCI five-dose assay; format: cell-based, human; conditions: 786-0, Renal cancer; for LC50 (50% lethal concentration) / GI50: Homo sapiens; for LC50 (50% lethal concentration): 48 h; for GI50: read-out: GI50 Conc. per Cell Lines

Cc1ccc(C(=O)CSc2nnc(-c3c[nH]c4ccccc34)n2-c2ccccc2)cc1 [Compound 6h, 2-((5-(1H-Indol-3-yl)-4-phenyl-4H-1,2,4-triazol-3-yl)thio)-1-(p-tolyl)ethenone]
TGI Conc. per Cell Lines (BT-549 [1]): 46.70 µM
CC50 (BT-549 [1]): 87.2 µM
GI50 (BT-549 [1]): 25.1 µM
inhibition at 10 µM (NCI 60 cell lines; ten cancer cell lines with complete cell death): 101 to 141%
inhibition at 10 µM (NCI 60 cell lines; twenty-five cell lines): 67 to 99%
CC50 (NCI-H23): 54.9 µM
GI50 (NCI-H23): 13.7 µM
TGI Conc. per Cell Lines (NCI-H23): 27.50 µM
inhibition at 10 µM (A498): 14.2%
CC50 (NCI-H522): > 100 µM
GI50 (NCI-H522): 16.3 µM
TGI Conc. per Cell Lines (NCI-H522): 43.70 µM
inhibition at 10 µM (MOLT-4): 38.3%
inhibition at 10 µM (EKVX): 47%
inhibition at 10 µM (SK-MEL-5): 67.1%
inhibition at 10 µM (OVCAR-8): 88.7%
inhibition at 10 µM (SF-539): 77.9%
inhibition at 10 µM (HCT-15): 56.2%
inhibition at 10 µM (SK-OV-3): 76%
inhibition at 10 µM (BT-549 [2]): 77.6%
inhibition at 10 µM (LOX IMVI): 120%
inhibition at 10 µM (MDA-MB-231/ATCC): 102%
inhibition at 10 µM (NCI/ADR-RES): 128%
inhibition at 10 µM (SF-295): 88.9%
inhibition at 10 µM (SF-268): 70.3%
inhibition at 10 µM (SR): 47%
inhibition at 10 µM (IGROV1): 75.8%
inhibition at 10 µM (A549/ATCC): 46.7%
inhibition at 10 µM (MDA-MB-468): 52%
inhibition at 10 µM (NCI-H460): 70.7%
inhibition at 10 µM (MDA-MB-435): 61.4%
inhibition at 10 µM (UACC-62): 76.1%
inhibition at 10 µM (HS 578 T): 101%
inhibition at 10 µM (HT29): 92.9%
inhibition at 10 µM (M14): 48.9%
TGI Conc. per Cell Lines (MDA/MB-231-ATCC): 32.60 µM
LC50 (MDA/MB-231-ATCC): 69 µM
GI50 (MDA/MB-231-ATCC): 15.4 µM
CC50 (PC-3; Homo sapiens, 48 h, read-out: LC50 (the source's name)): > 100 µM
GI50 (PC-3; Homo sapiens): 12.4 µM
TGI Conc. per Cell Lines (PC-3): 37.80 µM
TGI Conc. per Cell Lines (786-0): 31.20 µM
LC50 (50% lethal concentration) (786-0): 66.4 µM
GI50 (786-0): 14.7 µM

Cc1ccc(/C(CSc2nnc(-c3c[nH]c4ccccc34)n2-c2ccccc2)=N/O)cc1 [Compound 7h, (Z)-2-((5-(1H-Indol-3-yl)-4-phenyl-4H-1,2,4-triazol-3-yl)thio)-1-(p-tolyl)ethanone Oxime]
TGI Conc. per Cell Lines (BT-549 [1]): 3.03 µM
CC50 (BT-549 [1]): 5.78 µM
GI50 (BT-549 [1]): 1.59 µM
inhibition at 10 µM (NCI 60 cell lines; sixteen cell lines): 72 to 98%
inhibition at 10 µM (NCI 60 cell lines; thirty-six cell lines with complete cell death): 106 to 200%
CC50 (NCI-H23): > 100 µM
GI50 (NCI-H23): 10.1 µM
TGI Conc. per Cell Lines (NCI-H23): 52.20 µM
inhibition at 10 µM (A498): 8.13%
CC50 (NCI-H522): > 100 µM
GI50 (NCI-H522): 2.24 µM
TGI Conc. per Cell Lines (NCI-H522): 6.04 µM
inhibition at 10 µM (MOLT-4): 128%
inhibition at 10 µM (EKVX): 71.8%
inhibition at 10 µM (SK-MEL-5): 65.9%
inhibition at 10 µM (OVCAR-8): 128%
inhibition at 10 µM (SF-539): 89.9%
inhibition at 10 µM (HCT-15): 162%
inhibition at 10 µM (SK-OV-3): 88.5%
inhibition at 10 µM (BT-549 [2]): 176%
inhibition at 10 µM (LOX IMVI): 188%
inhibition at 10 µM (MDA-MB-231/ATCC): 182%
inhibition at 10 µM (NCI/ADR-RES): 168%
inhibition at 10 µM (SF-295): 150%
inhibition at 10 µM (SF-268): 160%
inhibition at 10 µM (SR): 90.2%
inhibition at 10 µM (IGROV1): 162%
inhibition at 10 µM (A549/ATCC): 81.6%
inhibition at 10 µM (MDA-MB-468): 189%
inhibition at 10 µM (NCI-H460): 98%
inhibition at 10 µM (MDA-MB-435): 200%
inhibition at 10 µM (UACC-62): 153%
inhibition at 10 µM (HS 578 T): 154%
inhibition at 10 µM (HT29): 93.7%
inhibition at 10 µM (M14): 164%
TGI Conc. per Cell Lines (MDA/MB-231-ATCC): 3.33 µM
LC50 (MDA/MB-231-ATCC): 6.27 µM
GI50 (MDA/MB-231-ATCC): 1.77 µM
GI50 (PC-3; Homo sapiens): 1.77 µM
TGI Conc. per Cell Lines (PC-3): 3.74 µM
TGI Conc. per Cell Lines (786-0): 31.40 µM
LC50 (50% lethal concentration) (786-0): 98.1 µM
GI50 (786-0): 10 µM

Reference: PMC11859928, “Design, Synthesis, and Antiproliferative Activity of Novel Indole/1,2,4-Triazole Hybrids as Tubulin Polymerization Inhibitors” (Pharmaceuticals, 2025)
